The text below walks through data of article PMC8152690, “Biosynthetic access to the rare antiarose sugar via an unusual reductase-epimerase” (Chemical Science, 2020).

The target in assay [1] is T1, RubS5 (Streptomyces sp. KIB-H033, UniProt A0A1I9S3Q5).
T1 construct: expressed and purified; rubrolone gene cluster
T1 sequence (A0A1I9S3Q5 1-289): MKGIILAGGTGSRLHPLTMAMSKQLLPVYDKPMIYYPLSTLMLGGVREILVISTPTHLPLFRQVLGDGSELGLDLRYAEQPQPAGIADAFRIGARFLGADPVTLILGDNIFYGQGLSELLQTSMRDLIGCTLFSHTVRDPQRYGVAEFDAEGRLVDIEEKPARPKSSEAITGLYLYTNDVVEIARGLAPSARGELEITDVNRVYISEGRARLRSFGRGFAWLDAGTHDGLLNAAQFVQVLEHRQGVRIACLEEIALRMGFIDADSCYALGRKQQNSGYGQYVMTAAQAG
Briefly: HPLC and 1H-NMR of product. The settings on record: sugar phosphate co-substrate (D-glucose-1-phosphate in text, D-glucose-6-phosphate in Fig. 2 legend). In kind it is biochemical.

Assay [2] relates to T2, RblE.
T2 construct: rubterolone gene cluster
In words: spectrophotometric assay, decrease of NADPH absorbance. Type of assay: biochemical.

`Cc1cn([C@H]2C[C@H](O)[C@@H](COP(=O)(O)OP(=O)(O)OP(=O)(O)O)O2)c(=O)[nH]c1=O` [TTP]: the “HPLC and 1H-NMR of product” value in assay [1] was “buffer with TTP and D-glucose-6-phosphate. (b) RubS5 reaction”. As to `Cc1cn([C@H]2C[C@H](O)[C@@H](COP(=O)(O)OP(=O)(O)O[C@H]3O[C@H](C)C(=O)[C@H](O)[C@H]3O)O2)c(=O)[nH]c1=O` [compound 1, TDP-4-keto-6-deoxy-D-glucose], the Km in assay [2] is 35 µM.

One may read the Km as the substrate concentration at which the rate is half of its maximum.
